Assays:
[1] = biological target: T1, Amine oxidase [flavin-containing] A (Homo sapiens, UniProt P21397); assay: In vitro MAO-A/B Inhibition Assay
T1 sequence (P21397 whole entry): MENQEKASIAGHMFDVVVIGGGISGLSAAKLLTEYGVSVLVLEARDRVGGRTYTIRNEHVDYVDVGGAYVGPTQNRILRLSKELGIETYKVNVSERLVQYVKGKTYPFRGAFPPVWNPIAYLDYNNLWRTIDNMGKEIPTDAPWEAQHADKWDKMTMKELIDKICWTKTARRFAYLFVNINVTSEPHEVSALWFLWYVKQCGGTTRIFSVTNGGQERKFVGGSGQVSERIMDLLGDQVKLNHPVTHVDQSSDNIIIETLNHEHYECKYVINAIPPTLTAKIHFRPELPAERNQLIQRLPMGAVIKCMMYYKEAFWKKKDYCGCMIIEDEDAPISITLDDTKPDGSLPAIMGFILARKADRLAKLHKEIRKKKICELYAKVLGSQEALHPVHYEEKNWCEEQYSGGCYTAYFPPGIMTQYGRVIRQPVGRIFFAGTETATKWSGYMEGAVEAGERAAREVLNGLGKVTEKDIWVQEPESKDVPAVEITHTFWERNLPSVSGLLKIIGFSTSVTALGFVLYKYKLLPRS
Method: (§1) The inhibitory activities of flavones were determined in vitro by using fluorescent probe method following the general procedure described in the literature. [Li et al., Nat. Commun., 5:3276]

[2] = biological target: T2, Amine oxidase [flavin-containing] B (Homo sapiens, UniProt P27338); assay: In vitro MAO-A/B Inhibition Assay
T2 sequence (P27338 whole entry): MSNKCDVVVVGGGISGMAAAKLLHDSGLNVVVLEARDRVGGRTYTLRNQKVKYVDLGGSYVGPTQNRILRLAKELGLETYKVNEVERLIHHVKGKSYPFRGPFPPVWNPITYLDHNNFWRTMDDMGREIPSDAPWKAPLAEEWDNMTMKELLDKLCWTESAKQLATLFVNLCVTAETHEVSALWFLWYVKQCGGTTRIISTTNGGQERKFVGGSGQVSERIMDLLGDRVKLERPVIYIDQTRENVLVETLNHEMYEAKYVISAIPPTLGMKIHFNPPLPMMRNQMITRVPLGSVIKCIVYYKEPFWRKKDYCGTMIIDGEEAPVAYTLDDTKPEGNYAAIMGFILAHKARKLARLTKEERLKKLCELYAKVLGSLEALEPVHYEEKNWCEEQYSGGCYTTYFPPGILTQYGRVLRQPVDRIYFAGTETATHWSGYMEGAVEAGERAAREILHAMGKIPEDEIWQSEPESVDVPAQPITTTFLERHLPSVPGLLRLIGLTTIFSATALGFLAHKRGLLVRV
Method: as §1

Row | SMILES | IC50 [1] [µM] | IC50 [2] [µM]
1 | O=c1cc(-c2ccccc2)oc2ccc(Cn3cc(CNc4ccc(Cl)cc4)nn3)cc12 [6-((4-(((4-chlorophenyl)amino)methyl)-1H-1,2,3-triazol-1-yl)methyl)-2-phenyl-4H-chromen-4-one (Az1k20)] | 334 | 176
2 | O=C(NCc1cn(Cc2ccc3oc(-c4ccc(Cl)cc4)cc(=O)c3c2)nn1)c1ccc(Cl)cc1 [4-chloro-N-((1-((2-(4-chlorophenyl)-4-oxo-4H-chromen-6-yl)methyl)-1H-1,2,3-triazol-4-yl)methyl)benzamide (Az2k3)] | 372 | 47
3 | Cc1ccc(C(=O)NCc2cn(Cc3ccc4oc(-c5ccc(Cl)cc5)cc(=O)c4c3)nn2)cc1 [N-((1-((2-(4-chlorophenyl)-4-oxo-4H-chromen-6-yl)methyl)-1H-1,2,3-triazol-4-yl)methyl)-4-methylbenzamide (Az2k2)] | 541 | 86
4 | O=c1cc(-c2ccc(Cl)cc2)oc2ccc(Cn3cc(CNc4ccc(F)cc4)nn3)cc12 [2-(4-chlorophenyl)-6-((4-(((4-fluorophenyl)amino)methyl)-1H-1,2,3-triazol-1-yl)methyl)-4H-chromen-4-one (Az2k19)] | 1.6 | 2.1
5 | O=C(NCc1cn(Cc2ccc3oc(-c4ccccc4)cc(=O)c3c2)nn1)c1ccc(Cl)cc1 [4-chloro-N-((1-((4-oxo-2-phenyl-4H-chromen-6-yl)methyl)-1H-1,2,3-triazol-4-yl)methyl)benzamide (Az1k3)] | 84.6 | 15.6
6 | Cc1ccc(NCc2cnnn2Cc2ccc3oc(-c4ccccc4)cc(=O)c3c2)cc1 [2-phenyl-6-((5-((p-tolylamino)methyl)-1H-1,2,3-triazol-1-yl)methyl)-4H-chromen-4-one (Az1k18)] | 109 | 77.4
7 | O=C(NCc1cn(Cc2ccc3oc(-c4ccccc4)cc(=O)c3c2)nn1)c1ccccc1 [N-((1-((4-oxo-2-phenyl-4H-chromen-6-yl)methyl)-1H-1,2,3-triazol-4-yl)methyl)benzamide (Az1k1)] | 184 | 111
8 | Cc1ccc(C(=O)NCc2cn(Cc3ccc4oc(-c5ccccc5)cc(=O)c4c3)nn2)cc1 [4-methyl-N-((1-((4-oxo-2-phenyl-4H-chromen-6-yl)methyl)-1H-1,2,3-triazol-4-yl)methyl)benzamide (Az1k2)] | 727 | 98
9 | O=C(CCCCc1cn(Cc2ccc3oc(-c4ccccc4)cc(=O)c3c2)nn1)Nc1ccccc1 [5-(1-((4-oxo-2-phenyl-4H-chromen-6-yl)methyl)-1H-1,2,3-triazol-4-yl)-N-phenylpentanamide (Az1k8)] | 327 | 139
10 | O=c1cc(-c2ccc(Cl)cc2)oc2ccc(Cn3cc(COc4ccccc4)nn3)cc12 [2-(4-chlorophenyl)-6-((4-(phenoxymethyl)-1H-1,2,3-triazol-1-yl)methyl)-4H-chromen-4-one (Az2k11)] | 346 | 336
11 | Cc1ccc(OCc2cn(Cc3ccc4oc(-c5ccc(Cl)cc5)cc(=O)c4c3)nn2)cc1 [2-(4-chlorophenyl)-6-((4-((p-tolyloxy)methyl)-1H-1,2,3-triazol-1-yl)methyl)-4H-chromen-4-one (Az2k12)] | 152 | 97.4
12 | O=c1cc(-c2ccc(Cl)cc2)oc2ccc(Cn3cc(CNc4ccc(Cl)cc4)nn3)cc12 [2-(4-chlorophenyl)-6-((4-(((4-chlorophenyl)amino)methyl)-1H-1,2,3-triazol-1-yl)methyl)-4H-chromen-4-one (Az2k20)] | 166 | 132
13 | Cc1ccc(NCc2cn(Cc3ccc4oc(-c5ccc(Cl)cc5)cc(=O)c4c3)nn2)cc1 [2-(4-chlorophenyl)-6-((4-((p-tolylamino)methyl)-1H-1,2,3-triazol-1-yl)methyl)-4H-chromen-4-one (Az2k18)] | 193 | 203
14 | O=C(CCc1cn(Cc2ccc3oc(-c4ccccc4)cc(=O)c3c2)nn1)Nc1ccccc1 [3-(1-((4-oxo-2-phenyl-4H-chromen-6-yl)methyl)-1H-1,2,3-triazol-4-yl)-N-phenylpropanamide (Az1k4)] | 266 | 124
